Literature values, collected in patent US20250090614A1, “COMPOSITIONS AND METHODS FOR IMPROVING LUNG FUNCTION” (priority 2023, published 2025).

Assays:
[1] = test system: senescent lung cells; conditions: mouse model, Palazzo et al. 2023; cited from earlier work
[2] = test system: Idiopathic pulmonary fibrosis (IPF); conditions: Dasatinib and Quercetin given together, pilot study, Justice et al. 2019; cited from earlier work

Compound | lung emphysema [1] | senescent lung cells [1] | physical dysfunction in Idiopathic pulmonary fibrosis (IPF) [2]
COC(=O)C1=C(C)NC(C)=C(C(=O)OC2CCCN(Cc3ccccc3)C2)C1c1cccc([N+](=O)[O-])c1 (stereo not drawn) [Benidipine] | ameliorates | decrease | 
O=c1c(O)c(-c2ccc(O)c(O)c2)oc2cc(O)cc(O)c12 [Quercetin] |  |  | showed promise
